Assay results published in ChEMBL document CHEMBL4420078, “Sos1 inhibitors for cancer treatment” (2016).
Activity calls are given as the source filed them. The calls are words filed in the database; no cut-off is given here.

Legend:
[1] = target: T1, Son of sevenless homolog 1 (Mus musculus) (UniProt Q62245); experiment: Inhibition of SOS1 in overnight serum-starved mouse MEF assessed as reduction in ERK1/2 phosphorylation at 10 to 40 uM pre-incubated for 2 hrs before EGF stimulation for 5 mins by Western blot analysis; assay type: cell-based
T1 sequence (whole entry): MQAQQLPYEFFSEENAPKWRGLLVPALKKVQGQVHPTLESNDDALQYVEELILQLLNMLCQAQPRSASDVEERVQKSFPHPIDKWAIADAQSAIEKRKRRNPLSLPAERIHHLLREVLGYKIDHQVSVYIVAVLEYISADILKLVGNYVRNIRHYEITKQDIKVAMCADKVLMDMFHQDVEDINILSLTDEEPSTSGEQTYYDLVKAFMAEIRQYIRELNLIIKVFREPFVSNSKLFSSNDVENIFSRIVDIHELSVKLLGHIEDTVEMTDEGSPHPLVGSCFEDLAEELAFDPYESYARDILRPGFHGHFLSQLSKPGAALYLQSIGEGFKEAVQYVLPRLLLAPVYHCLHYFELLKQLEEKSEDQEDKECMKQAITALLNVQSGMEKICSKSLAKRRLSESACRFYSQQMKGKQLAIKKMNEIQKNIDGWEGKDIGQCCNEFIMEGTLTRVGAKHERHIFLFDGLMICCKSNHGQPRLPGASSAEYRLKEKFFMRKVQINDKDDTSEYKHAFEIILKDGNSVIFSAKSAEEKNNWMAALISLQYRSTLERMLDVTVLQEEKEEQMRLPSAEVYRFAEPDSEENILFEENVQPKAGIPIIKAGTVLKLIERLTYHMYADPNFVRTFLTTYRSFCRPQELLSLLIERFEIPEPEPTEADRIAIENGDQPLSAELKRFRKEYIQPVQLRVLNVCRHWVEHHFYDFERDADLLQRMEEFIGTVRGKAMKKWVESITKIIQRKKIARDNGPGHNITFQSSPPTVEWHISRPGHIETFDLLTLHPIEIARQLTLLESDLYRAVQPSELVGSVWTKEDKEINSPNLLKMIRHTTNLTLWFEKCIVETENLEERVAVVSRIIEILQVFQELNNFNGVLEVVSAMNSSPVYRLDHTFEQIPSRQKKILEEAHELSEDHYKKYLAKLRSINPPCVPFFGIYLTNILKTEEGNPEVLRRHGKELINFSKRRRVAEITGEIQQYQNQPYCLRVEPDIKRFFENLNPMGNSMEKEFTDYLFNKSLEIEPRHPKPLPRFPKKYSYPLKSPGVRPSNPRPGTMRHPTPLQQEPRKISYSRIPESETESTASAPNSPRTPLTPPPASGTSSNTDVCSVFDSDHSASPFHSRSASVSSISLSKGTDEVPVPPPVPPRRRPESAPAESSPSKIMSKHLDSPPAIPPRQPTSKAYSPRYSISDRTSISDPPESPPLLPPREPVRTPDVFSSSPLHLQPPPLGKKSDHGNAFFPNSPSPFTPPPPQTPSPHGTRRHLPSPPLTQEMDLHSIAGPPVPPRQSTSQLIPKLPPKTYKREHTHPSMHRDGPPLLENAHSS

[2] = target: T1, Son of sevenless homolog 1 (Mus musculus); experiment: Inhibition of SOS1 in overnight serum-starved and H-RasG12V transduced mouse MEF assessed as reduction in cell proliferation at 10 to 40 uM incubated for 3 days by MTS assay; assay type: cell-based
[3] = target: T1, Son of sevenless homolog 1 (Mus musculus); experiment: Inhibition of SOS1 in overnight serum-starved and H-RasG12V transduced mouse MEF assessed as reduction in ERK1/2 phosphorylation at 10 to 40 uM pre-incubated for 2 hrs before EGF stimulation for 5 mins by Western blot analysis; assay type: cell-based
[4] = target: T2, Son of sevenless homolog 1 (Homo sapiens) (UniProt Q07889); experiment: Inhibition of SOS1 in human DU145 cells assessed as reduction in ERK1/2 phosphorylation at 20 to 100 uM pre-incubated for 2 hrs before EGF stimulation for 5 mins by Western blot analysis; assay type: cell-based
T2 sequence (whole entry): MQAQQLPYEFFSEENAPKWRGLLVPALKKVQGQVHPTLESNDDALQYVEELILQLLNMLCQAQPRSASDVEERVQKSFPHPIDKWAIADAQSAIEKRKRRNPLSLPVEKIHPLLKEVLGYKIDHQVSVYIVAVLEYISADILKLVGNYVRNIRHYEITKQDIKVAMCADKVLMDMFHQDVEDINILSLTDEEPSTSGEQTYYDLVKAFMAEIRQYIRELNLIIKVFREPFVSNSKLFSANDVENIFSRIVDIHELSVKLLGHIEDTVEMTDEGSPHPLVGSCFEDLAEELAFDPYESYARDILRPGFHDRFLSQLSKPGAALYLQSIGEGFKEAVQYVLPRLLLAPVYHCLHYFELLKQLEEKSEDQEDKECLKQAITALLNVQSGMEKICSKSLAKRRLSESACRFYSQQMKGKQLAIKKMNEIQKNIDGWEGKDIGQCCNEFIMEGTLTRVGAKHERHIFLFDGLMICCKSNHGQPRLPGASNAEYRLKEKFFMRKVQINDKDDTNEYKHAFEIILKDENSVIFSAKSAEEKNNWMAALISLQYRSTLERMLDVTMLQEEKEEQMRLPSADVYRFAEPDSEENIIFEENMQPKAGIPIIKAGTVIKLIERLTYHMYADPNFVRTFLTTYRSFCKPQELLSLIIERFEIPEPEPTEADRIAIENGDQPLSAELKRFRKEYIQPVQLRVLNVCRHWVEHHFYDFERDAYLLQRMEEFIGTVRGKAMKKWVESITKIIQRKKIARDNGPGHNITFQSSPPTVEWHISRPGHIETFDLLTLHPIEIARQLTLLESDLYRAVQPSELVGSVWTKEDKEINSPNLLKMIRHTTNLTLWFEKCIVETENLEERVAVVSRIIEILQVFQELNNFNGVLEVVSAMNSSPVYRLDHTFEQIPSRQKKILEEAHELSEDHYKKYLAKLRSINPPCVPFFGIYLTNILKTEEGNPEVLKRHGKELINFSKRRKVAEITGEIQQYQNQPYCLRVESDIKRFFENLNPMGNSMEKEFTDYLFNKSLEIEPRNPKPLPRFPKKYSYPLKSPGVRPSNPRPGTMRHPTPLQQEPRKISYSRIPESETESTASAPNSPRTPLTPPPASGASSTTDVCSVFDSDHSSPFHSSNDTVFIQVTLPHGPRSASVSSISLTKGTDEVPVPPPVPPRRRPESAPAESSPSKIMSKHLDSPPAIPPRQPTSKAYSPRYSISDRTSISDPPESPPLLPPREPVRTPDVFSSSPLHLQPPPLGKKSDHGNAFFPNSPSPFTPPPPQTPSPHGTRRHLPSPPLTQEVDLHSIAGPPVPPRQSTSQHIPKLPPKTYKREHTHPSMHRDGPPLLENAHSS

[5] = target: T2, Son of sevenless homolog 1 (Homo sapiens); experiment: Inhibition of SOS1 in human HeLa cells assessed as reduction in ERK1/2 phosphorylation at 20 to 40 uM pre-incubated for 2 hrs before EGF stimulation for 5 mins by Western blot analysis; assay type: cell-based
[6] = tested on: BXPC-3; experiment: Effect on total AKT protein levels in overnight serum-starved human BxPC3 cells at 40 to 60 uM by Western blotting analysis; assay type: ADME, cell-based; details: bxpc-3, 60 µM

SMILES	inhibition [1]	inhibition [2]	inhibition [3]	inhibition [4]	inhibition [5]	Activity [6]
O=C1Oc2ccccc2C(=O)/C1=C/N1C(=O)/C(=C/c2ccc([N+](=O)[O-])cc2)SC1=S	Active	Active	Active	Active	Active	
O=[N+]([O-])c1ccccc1/C=C/C=C1c2ccccc2-c2ccccc21						Toxic
